Experimental data from ChEMBL document CHEMBL1150735, “Phytochemical and pharmacological investigation of the cardioactive constituents of the leaf of Dysoxylum lenticellare” (J Nat Prod, 1987).

Legend:
[1] = Solubility in water; type: physicochemical; conditions: buffer
[2] = Cardiovascular activity in spontaneously beating rat right atria assessed as change in rate of contraction at 80 uM by microdynameter relative to control; type: functional; conditions: Right cardiac atrium
[3] = Cardiovascular activity in spontaneously beating rat right atria assessed as change in amplitude of contraction at 80 uM by microdynameter relative to control; type: functional; conditions: Right cardiac atrium

Row | SMILES | solubility [1] | Activity [2] [%] | Activity [3] [%]
1 | C=C1C[C@]23CC[C@@H]4C(C)(C)CCC[C@@]4(C)[C@@H]2CC[C@H]1C3 [PHYLLOCLADENE] | Insoluble | – | –
2 | COc1cc2c(cc1OC)[C@@H](CCc1ccc3c(c1)OCO3)N(C)CC2 | – | -6.4 | 11.8
3 | COc1cc2c(cc1OC)-c1cc3c(cc1CCCN(C)CC2)OCO3 [DYSAZECINE] | Insoluble | – | –
4 | CO[C@H]1CC=C2CCN3CCC(O)c4cc5c(cc4[C@]23C1)OCO5 (stereo partly drawn) | – | -6 | 11.5
5 | COc1ccc(CC[C@@H]2c3cc(OC)c(OC)cc3CCN2C)cc1OC | – | -6.7 | 16.3
